According to patent publication US20070078177A1, “METHODS AND COMPOSITIONS FOR TREATING NON AGE RELATED HEARING IMPAIRMENT IN A SUBJECT” (WASHINGTON UNIVERSITY IN ST. LOUIS, priority 2005, published 2007):
“Also recorded” adds a separate entry of the source.

Legend:
[1] = system: outer hair cells (OHCs), inner hair cells (IHCs), and spiral ganglion neurons (SGNs); assay: Cochlear histology after noise exposure: counting of IHCs, OHCs and SGNs, cytocochleograms; format: in vivo, C57BL/6J mice; conditions: for number (density) of SGNs, control vs drug-treated mice: apex, middle and base regions, male mice at 3 months, drug after noise, FIG. 6B (trimethadione), FIG. 7 (ethosuximide); for gross morphological changes in mid-modiolar sections, control vs drug-treated mice: drug after noise exposure
Source text: The methods for fixing, processing and analyzing the mouse cochlea have been described in detail elsewhere (Ohlemiller et al., 2000; Ou et al., 2000). Briefly, mice were perfused transcardially with cold 2% paraformaldehyde and 2% glutaraldehyde in 0.1 M phosphate buffer. Both cochleae were isolated, the stapes removed, and immersed in the same fixative. Complete exposure of the cochlea to the fixative was ensured by making a small hole at the apex of the cochlear capsule, gently circulating the fixative over the cochlea using a transfer pipet. After decalcification in sodium EDTA, the cochleae were post-fixed in buffered 1% osmium tetroxide, dehydrated in an ascending acetone series, and embedded in Epon. For SGN counting, mid-modiolar sections (4 μm) were cut and about fifty sections were collected for each cochlea. The number of SGN nuclei at the apex, middle, and base was counted every fifth section (total 10 sections per one cochlea) under a 200× visual field using a computerized planimetry program of Image Pro Plus (Media Cybernetics). Because all sections were cut in a similar orientation, it was possible to evaluate comparisons between two groups by Mann-Whitney tests. For hair cell counting, cochleae were dissected into roughly half-turn segments. These half-turn segments were examined in mineral oil under Nomarski optics, using a calibrated ocular. Three separate inner hair cell (IHC) and outer hair cell (OHC) counts were obtained from non-overlapping 100 μm segments. Cytocochleogrames were prepared for one pair of mice with the best prophylactic function of trimethadione. The percentages of missing IHCs and OHCs were determined by dividing the number of missing hair cells by the total number of hair cells (i.e. present plus absent) in the organ of Corti.

[2] = system: noise-induced hearing loss (NIHL); assay: Therapeutic function on noise-induced hearing loss: ABR thresholds, drug in drinking water right after noise exposure
[3] = stated as reason for selecting TMO; cited from earlier work
[4] = system: noise-induced hearing loss (NIHL); assay: Prophylactic function on noise-induced hearing loss: ABR thresholds, drug in drinking water before noise exposure; conditions: for ABR threshold shift prevented, PTS: Drug-Noise-2w; for ABR threshold shift prevented, PTS / ABR threshold shift prevented, TTS: P<0.01; for ABR threshold shift prevented, TTS: Drug-Noise-24h
[5] = both male and female mice, 3 months old, drug in drinking water two weeks before noise, one-way ANOVA p<0.05, FIG. 5
[6] = female mice, across five tested frequencies, FIG. 5B
[7] = male mice, five tested frequencies from 5 to 40K, FIG. 5A

CCC1(C)CC(=O)NC1=O (stereo not drawn) [ethosuximide]
number (density) of SGNs, control vs drug-treated mice [1]: no difference; also recorded: not significantly different | gross morphological changes in mid-modiolar sections, control vs drug-treated mice [1]: No obvious gross morphological changes | temporary threshold shift (TTS) vs control ([2]; 24 hours after noise (wideband, 110 dB, 30 min), ethosuximide 400 mg/kg/day in drinking water starting immediately after noise, FIG. 2B): significantly lower | permanent threshold shift (PTS) vs control ([2]; 21 days after noise, ethosuximide 400 mg/kg/day in drinking water for three weeks starting immediately after noise, FIG. 2C): significantly lower | ABR threshold before the noise exposure vs control ([2]; ethosuximide group vs control, n=5, 2 month-old mice, FIG. 2A): no difference | ABR threshold shift, PTS, vs control ([2]; male mice (n=5), 3 months old, ethosuximide in drinking water right after noise, P<0.01, FIG. 4): less ABR threshold shift; also recorded: significant protection | ABR threshold shift, TTS, vs control ([2]; male mice (n=5), 3 months old, ethosuximide in drinking water right after noise, P<0.05, FIG. 4): less ABR threshold shift; also recorded: significant protection

CN1C(=O)OC(C)(C)C1=O [trimethadione]
loss of IHCs ([1]; apex region (0 to 8 kHz), single treated mouse of the pair, control 0.3%): ~1.9% | loss of OHCs ([1]; apex region (0 to 8 kHz), single treated mouse of the pair, control 4.6%): ~3.5% | number (density) of SGNs, control vs drug-treated mice [1]: no difference; also recorded: not significantly different | missing IHCs ([1]; base region (32 kHz to 64 kHz), single treated mouse of the pair, control 22.2%, FIG. 8): about 1.8% | missing OHCs ([1]; base region (32 kHz to 64 kHz), single treated mouse of the pair, control 74.4%, FIG. 8): ~68.8% | gross morphological changes in mid-modiolar sections, control vs drug-treated mice [1]: No obvious gross morphological changes | morphological differences among groups ([1]; groups testing the prophylactic function): no obvious morphological differences | IHC numbers, control vs drug-treated mice ([1]; hook, low base, upper base and apex of cochlea, 3-months-old male mice (n=3), FIG. 6A): no significant difference | OHC numbers, control vs drug-treated mice ([1]; hook, low base, upper base and apex of cochlea, 3-months-old male mice (n=3), Noise-Only-2w vs Noise-Drug-2w, FIG. 6A): trend for the loss of more outer hair cells; also recorded: no significant difference | water solubility [3]: water soluble | temporary threshold shift (TTS) vs control ([4]; 24 hours after noise (wideband, 110 dB, 30 min), TMO 200 mg/kg/day in drinking water three weeks before noise, all seven frequencies, FIG. 1B): significantly lower | permanent threshold shift (PTS) vs control ([4]; 14 days after noise (wideband, 110 dB, 30 min), TMO 200 mg/kg/day in drinking water three weeks before noise, all seven frequencies, FIG. 1C, listed as TMO): significantly lower | ABR threshold before the noise exposure vs control ([4]; TMO 200 mg/kg body weight/day in drinking water, one week after TMO treatment, n=5, 8 month-old mice, FIG. 1A): no difference | ABR threshold shift at the apex region ([4]; apex region (0 to 8 kHz), single treated mouse of the pair, control about 25 dB): no shift | protection from NIHL, PTS [4, 5]: significant protection | protection from NIHL, TTS [4, 5]: significant protection | ABR threshold shift after the noise exposure ([4]; both male and female mice, prophylactic treatment): dramatically reduced | ABR threshold shift prevented, PTS [4, 6]: ~7.0 dB | ABR threshold shift prevented, TTS [4, 6]: about 5.0 dB | ABR threshold shift prevented, PTS [4, 7]: ~9.7 dB | ABR threshold shift prevented, TTS [4, 7]: about 4.3 dB | permanent ABR threshold shift among five frequencies tested ([4]; single treated mouse (male, 3 months) of a selected pair, drug two weeks before noise, control mouse about 35 dB, FIG. 8): 11 dB | ABR threshold at 40 kHz before the noise exposure ([4]; single treated mouse of the pair, same value in the control mouse): 28 dB | ABR threshold shift, TTS, vs control ([2]; female mice (n=4), 24 h after noise, drug right after noise, FIG. 3B): no significant difference | ABR threshold shift, PTS, vs control ([2]; female mice (n=4), two weeks after noise, drug right after noise, FIG. 3B): no statistical difference | protection from NIHL, TTS ([2]; male mice (n=3), 3 months old, drug in drinking water right after noise, one-way ANOVA p<0.05, FIG. 3A): significant protection | ABR threshold shift, PTS, vs control ([2]; male mice (n=3), two weeks after noise, drug right after noise, P<0.01): significantly less; also recorded: significant protection | less ABR threshold shift than controls, TTS ([2]; male mice, 24 h after noise, drug in drinking water right after noise, across all five frequencies, P<0.05, FIG. 3A): about 10 dB | pre-exposure ABR thresholds (Pre-Noise-Only vs Pre-Noise-Drug) ([2]; male or female mice, 3 months old, FIGS. 3A and 3B): no significant difference
